Type in all cases: biochemical
One experiment deals with T1, Aurora A kinase (Homo sapiens, UniProt O14965).
T1 construct: purchased Upstate
T1 sequence (O14965 1-403): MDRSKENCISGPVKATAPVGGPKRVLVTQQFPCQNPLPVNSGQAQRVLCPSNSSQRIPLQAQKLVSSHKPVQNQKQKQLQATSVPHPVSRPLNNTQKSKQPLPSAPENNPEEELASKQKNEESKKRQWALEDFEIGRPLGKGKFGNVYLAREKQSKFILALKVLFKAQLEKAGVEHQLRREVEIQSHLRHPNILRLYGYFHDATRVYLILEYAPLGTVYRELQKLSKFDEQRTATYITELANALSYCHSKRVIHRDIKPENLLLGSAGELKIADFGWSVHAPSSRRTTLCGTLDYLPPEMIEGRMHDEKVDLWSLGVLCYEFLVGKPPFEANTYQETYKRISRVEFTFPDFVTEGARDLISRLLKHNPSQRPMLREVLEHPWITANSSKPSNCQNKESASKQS
Kind of experiment: Aurora A kinase assay ([γ-33P]ATP, CHOCKtide substrate). The note with it: for inhibition at 1 µM: 1.0 μM test compound. An outline of the steps: (§1)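 Recombinant Aurora A (1 ng) or Aurora B (2.5 ng) incubated with test compound, CHOCKtide (1 μg) and [γ-33P]ATP/ATP at 10 μM (Aurora A) or 40 μM (Aurora B), 30 min at 33 °C. Stopped with phosphoric acid; filter-bound 33P counted; IC50 = half-maximal inhibition.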

The target in the next experiment is T2, Aurora B kinase (Homo sapiens, UniProt Q96GD4).
T2 construct: purchased Cell signaling
The experiment is described as follows: Aurora B kinase assay ([γ-33P]ATP, CHOCKtide substrate). The note with it: for inhibition at 1 µM: 1.0 μM test compound. An outline of the steps:
as §1

The target in a further experiment is T3, PDGFR-β kinase (Homo sapiens, UniProt P09619).
T3 construct: recombinant N-terminal 6×His-tagged PDGFR-β kinase domain construct expressed by baculovirus; 6xHis (N); made in house
Kind of experiment: PDGFR-β kinase assay (33P incorporation into Poly(Glu-Tyr)). The note with it: 500 nM test compound. An outline of the steps:
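His-tagged PDGFR-β kinase domain (55 ng) with Poly(Glu-Tyr) 4:1, 30 μM ATP plus [33P]-γ-ATP, pH 7.0 MnCl2 buffer, and 500 nM compound for 30 min at 30° C. Filter-bound radioactivity counted; inhibition computed relative to DMSO control.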

A further experiment deals with T4, c-Met kinase (Homo sapiens, UniProt P08581).
T4 construct: recombinant N-terminal 6×His-tagged c-Met kinase domain construct expressed from baculovirus; 6xHis (N); made in house
The experiment is described as follows: c-Met kinase assay (33P incorporation into Poly(Glu-Tyr)). The note with it: 500 nM test compound. An outline of the steps: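 Recombinant N-terminal 6×His-tagged c-Met kinase domain (baculovirus-expressed, 5 ng) acted on Poly(Glu-Tyr) 4:1 with 100 μM ATP plus [33P]-γ-ATP in MOPS pH 7.0 buffer, 30 min at 30° C. Compound was at 500 nM. Filter-retained radioactivity was compared with the DMSO control to give percent inhibition.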

17 compounds from patent US7897602B2, “Indolinone compounds as kinase inhibitors” (Development Center for Biotechnology, priority 2009, dated 2011) can be followed below.

Molecules are shown by their SMILES. Where a name gives a salt, the structure may show the parent alone.

T2 sequence (Q96GD4 whole entry): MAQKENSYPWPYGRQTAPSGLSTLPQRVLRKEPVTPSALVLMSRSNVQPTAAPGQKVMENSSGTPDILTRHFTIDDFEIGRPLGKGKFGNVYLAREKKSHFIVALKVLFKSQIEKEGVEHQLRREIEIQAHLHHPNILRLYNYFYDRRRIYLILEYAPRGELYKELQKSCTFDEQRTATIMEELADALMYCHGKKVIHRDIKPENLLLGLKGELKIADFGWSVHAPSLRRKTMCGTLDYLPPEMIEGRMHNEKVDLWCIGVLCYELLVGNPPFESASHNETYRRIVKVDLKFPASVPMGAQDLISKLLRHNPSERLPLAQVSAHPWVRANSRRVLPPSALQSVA
T4 sequence (P08581 1078-1345 limits assumed): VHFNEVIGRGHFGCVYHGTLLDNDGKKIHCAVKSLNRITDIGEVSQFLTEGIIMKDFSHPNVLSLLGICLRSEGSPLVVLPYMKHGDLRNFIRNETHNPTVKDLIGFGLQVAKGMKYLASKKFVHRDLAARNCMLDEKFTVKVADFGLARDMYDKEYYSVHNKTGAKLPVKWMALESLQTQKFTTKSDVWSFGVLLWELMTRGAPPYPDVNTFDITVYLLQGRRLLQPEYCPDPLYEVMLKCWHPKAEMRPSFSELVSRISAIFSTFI
T3 sequence (P09619 600-962 limits assumed): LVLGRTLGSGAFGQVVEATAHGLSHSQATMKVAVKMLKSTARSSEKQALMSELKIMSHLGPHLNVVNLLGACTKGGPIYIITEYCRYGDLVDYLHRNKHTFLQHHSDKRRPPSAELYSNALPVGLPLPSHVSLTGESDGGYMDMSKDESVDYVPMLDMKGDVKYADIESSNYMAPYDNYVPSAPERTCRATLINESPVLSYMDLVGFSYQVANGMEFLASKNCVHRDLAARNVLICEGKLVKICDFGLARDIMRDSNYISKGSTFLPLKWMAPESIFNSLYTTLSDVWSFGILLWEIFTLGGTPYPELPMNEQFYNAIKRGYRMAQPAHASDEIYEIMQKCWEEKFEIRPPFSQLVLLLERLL

Regarding `C=CS(=O)(=O)c1ccc2c(c1)/C(=C/c1[nH]c3c(c1CCC(=O)O)C(=O)CCC3)C(=O)N2` [DCB-70115, (Z)-5-vinylsulfonyl-3-((3-carboxyethyl-4-oxo-4,5,6,7-tetrahydro-1H-indol-2-yl)methylene)indolin-2-one], the figures for the inhibition at 1 µM against Aurora A kinase and against Aurora B kinase were 99.4% and 32.5%, respectively. The inhibition at 0.5 µM at PDGFR-β kinase turned out to be 22%; against c-Met kinase, 22.3%.

Take `CCOC(=O)CCc1c(/C=C2\C(=O)Nc3ccc(NC(=O)Nc4ccc(C)cc4)cc32)[nH]c2c1C(=O)CCC2` [DCB-70091, (Z)-5-(3-p-tolylureido)-3-((3-(3-ethoxy-3-oxopropyl)-4-oxo-4,5,6,7-tetrahydro-1H-indol-2-yl)methylene)indolin-2-one]: the inhibition at 1 µM against Aurora A kinase is 7.6%; against Aurora B kinase it was 10.8%. Besides, the inhibition at 0.5 µM is 13% at PDGFR-β kinase and -0.5% at c-Met kinase.

Turning to `O=C(O)CCc1c(/C=C2\C(=O)Nc3ccc(-c4ccc(F)cc4)cc32)[nH]c2c1C(=O)CCC2` [DCB-70109, (Z)-5-(4-fluorophenyl)-3-((3-carboxyethyl-4-oxo-4,5,6,7-tetrahydro-1H-indol-2-yl)methylene)indolin-2-one], the inhibition at 1 µM at Aurora A kinase was 69.1%; against Aurora B kinase it was 1.8%. Further, the inhibition at 0.5 µM on PDGFR-β kinase is 22.6%; at c-Met kinase it was -10.8%.

As to `CCOC(=O)CCc1c(/C=C2\C(=O)Nc3cc(-c4ccc(O)cc4)ccc32)[nH]c2c1C(=O)CCC2` [DCB-70066, (Z)-6-(4-hydroxyphenyl)-3-((3-(3-ethoxy-3-oxopropyl)-4-oxo-4,5,6,7-tetrahydro-1H-indol-2-yl)methylene)indolin-2-one], the inhibition at 1 µM at Aurora A kinase was determined as 40.1%; against Aurora B kinase, 25.3%. Also, the figures for the inhibition at 0.5 µM on PDGFR-β kinase and at c-Met kinase were 85.4% and 15.2%, respectively.

For `CCN(CC)C(=O)CCc1c(/C=C2\C(=O)Nc3ccc(F)cc32)[nH]c2c1C(=O)CCC2` [DCB-70124, (Z)-N,N-diethyl-3-(2-((5-fluoro-2-oxoindolin-3-ylidene)methyl)-4-oxo-4,5,6,7-tetrahydro-1H-indol-3-yl)propanamide], the figures for the inhibition at 1 µM at Aurora A kinase and against Aurora B kinase were 11.9% and 1.4%, respectively. Also, the inhibition at 0.5 µM was 64.3% against PDGFR-β kinase and -0.8% against c-Met kinase.

For `O=C(O)CCc1c(/C=C2\C(=O)Nc3cc(-c4ccc(O)c(O)c4)ccc32)[nH]c2c1C(=O)CCC2` [DCB-70078, (Z)-6-(3,4-dihydroxyphenyl)-3-((3-carboxyethyl-4-oxo-4,5,6,7-tetrahydro-1H-indol-2-yl)methylene)indolin-2-one], the IC50 came out at 46.1 nM against Aurora A kinase and 438 nM at Aurora B kinase. For the same compound, the figures for the inhibition at 1 µM at Aurora A kinase and against Aurora B kinase were 91.6% and 63.4%, respectively. The values for the inhibition at 0.5 µM at PDGFR-β kinase and at c-Met kinase were 85% and -54.1%, respectively.

Turning to `CCOC(=O)CCc1c(/C=C2\C(=O)Nc3cc(-c4ccc5c(c4)OCO5)ccc32)[nH]c2c1C(=O)CCC2` [DCB-70128, (Z)-ethyl 3-(2-((6-(benzo[d][1,3]dioxol-5-yl)-2-oxoindolin-3-ylidene)methyl)-4-oxo-4,5,6,7-tetrahydro-1H-indol-3-yl)propanoate], the inhibition at 1 µM on Aurora A kinase came out at 5.1%; on Aurora B kinase, 13.5%. Besides, the inhibition at 0.5 µM against PDGFR-β kinase was 9%; against c-Met kinase, 12.5%.

Take `CN1CCN(S(=O)(=O)c2ccc3c(c2)/C(=C/c2[nH]c4c(c2CCC(=O)O)C(=O)CCC4)C(=O)N3)CC1` [DCB-70107, (Z)-5-(4-methylpiperazin-1-ylsunfonyl)-3-((3-carboxyethyl-4-oxo-4,5,6,7-tetrahydro-1H-indol-2-yl)methylene)indolin-2-one hydrochloride]: the results for the inhibition at 1 µM against Aurora A kinase and at Aurora B kinase were 36% and 23.7%, respectively. Besides, the inhibition at 0.5 µM against PDGFR-β kinase turned out to be 8%; against c-Met kinase, 59.6%.

`CCOC(=O)CCc1c(/C=C2\C(=O)Nc3ccc(NC(=O)c4ccc([N+](=O)[O-])cc4)cc32)[nH]c2c1C(=O)CCC2` [DCB-70140, (Z)-ethyl 3-(2-((5-(4-nitrobenzamido)-2-oxoindolin-3-ylidene)methyl)-4-oxo-4,5,6,7-tetrahydro-1H-indol-3-yl)propanoate]: the values for the inhibition at 1 µM at Aurora A kinase and against Aurora B kinase were 31.1% and 5.2%, respectively. Moreover, the inhibition at 0.5 µM stood at 7.5% on PDGFR-β kinase and 9.3% against c-Met kinase.

For `COc1cc(-c2ccc3c(c2)/C(=C/c2[nH]c4c(c2CCC(=O)O)C(=O)CCC4)C(=O)N3)ccc1O` [DCB-70059, (Z)-5-(4-hydroxyl-3-methoxyphenyl)-3-((3-carboxyethyl-4-oxo-4,5,6,7-tetrahydro-1H-indol-2-yl)methylene)indolin-2-one], the IC50 against Aurora A kinase came out at 357 nM. Further, the inhibition at 1 µM against Aurora A kinase was determined as 76.1%; at Aurora B kinase, 12.4%. The results for the inhibition at 0.5 µM against PDGFR-β kinase and against c-Met kinase were 38.3% and 16.3%, respectively.

Take `CCOC(=O)CCc1c(/C=C2\C(=O)Nc3ccc(NC(=O)Nc4ccc(Br)cc4)cc32)[nH]c2c1C(=O)CCC2` [DCB-70135, (Z)-ethyl 3-(2-((5-(3-(4-bromophenyl)ureido)-2-oxoindolin-3-ylidene)methyl)-4-oxo-4,5,6,7-tetrahydro-1H-indol-3-yl)propanoate]: the inhibition at 1 µM was 7.4% against Aurora A kinase and -6.6% against Aurora B kinase. The inhibition at 0.5 µM is 12% against PDGFR-β kinase and -3.7% against c-Met kinase.

As to `O=C(O)CCc1c(/C=C2\C(=O)Nc3cc(-c4cc(F)cc(F)c4)ccc32)[nH]c2c1C(=O)CCC2` [DCB-70101, (Z)-6-(3,5-difluorophenyl)-3-((3-carboxyethyl-4-oxo-4,5,6,7-tetrahydro-1H-indol-2-yl)methylene)indolin-2-one], the values for the inhibition at 1 µM against Aurora A kinase and on Aurora B kinase were 38.5% and 17.7%, respectively. Besides, the inhibition at 0.5 µM was 70.5% against PDGFR-β kinase and 26.7% at c-Met kinase.

Regarding `CCOC(=O)CCc1c(/C=C2\C(=O)Nc3cc(F)ccc32)[nH]c2c1C(=O)CCC2` [DCB-70122, (Z)-6-fluoro-3-((3-(3-ethoxy-3-oxopropyl)-4-oxo-4,5,6,7-tetrahydro-1H-indol-2-yl)methylene)indolin-2-one], the inhibition at 1 µM came out at 34.1% against Aurora A kinase and 8.3% on Aurora B kinase. In addition, the inhibition at 0.5 µM came to 64.3% against PDGFR-β kinase and 19.1% against c-Met kinase.

Regarding `O=C(O)CCc1c(/C=C2\C(=O)Nc3ccc(NC(=O)c4ccc(F)cc4)cc32)[nH]c2c1C(=O)CCC2` [DCB-70076, (Z)-5-(4-fluorobenzamido)-3-((3-carboxyethyl-4-oxo-4,5,6,7-tetrahydro-1H-indol-2-yl)methylene)indolin-2-one], the inhibition at 1 µM is 40.7% on Aurora A kinase and 7.4% on Aurora B kinase. Also, the inhibition at 0.5 µM against PDGFR-β kinase stood at 26.9%; at c-Met kinase it was 21.8%.

As for `CN(C)S(=O)(=O)c1ccc2c(c1)/C(=C/c1[nH]c3c(c1CCC(=O)O)C(=O)CCC3)C(=O)N2` [DCB-70121, (Z)-5-(N,N-dimethylsulfamoyl)-3-((3-carboxyethyl-4-oxo-4,5,6,7-tetrahydro-1H-indol-2-yl)methylene)indolin-2-one], the inhibition at 1 µM was found to be 97.9% against Aurora A kinase and 46.5% against Aurora B kinase. At Aurora B kinase, this compound displayed an IC50 of 1720 nM. Also, the inhibition at 0.5 µM on PDGFR-β kinase was 16.9%; on c-Met kinase, -6.7%.

`O=C(O)CCc1c(/C=C2\C(=O)Nc3cc(-c4cc5ccccc5s4)ccc32)[nH]c2c1C(=O)CCC2` [DCB-70080, (Z)-6-(benzo[b]thiophen-2-yl)-3-((3-carboxyethyl-4-oxo-4,5,6,7-tetrahydro-1H-indol-2-yl)methylene)indolin-2-one]: the inhibition at 1 µM against Aurora A kinase was determined as 40.3%; against Aurora B kinase, 35.2%. Also, the inhibition at 0.5 µM is 56.7% on PDGFR-β kinase and -21.3% against c-Met kinase.

Consider `O=C(O)CCc1c(/C=C2\C(=O)Nc3ccc(S(=O)(=O)N4CCOCC4)cc32)[nH]c2c1C(=O)CCC2` [DCB-70088, (Z)-5-morpholinosulfonyl-3-((3-carboxyethyl-4-oxo-4,5,6,7-tetrahydro-1H-indol-2-yl)methylene)indolin-2-one], for which the IC50 stood at 28.8 nM against Aurora A kinase and 1870 nM on Aurora B kinase. Also, the figures for the inhibition at 1 µM at Aurora A kinase and against Aurora B kinase were 99.3% and 48.8%, respectively. For the same compound, the inhibition at 0.5 µM at PDGFR-β kinase came out at 1%; against c-Met kinase, 25.3%.
